Experimental data: PubChem BioAssay (NCI)
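How tested: cells in 96-well plates exposed to compound for 48 hours at five concentrations. At the GI50, growth is halved. At the TGI there is no net growth.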

Tests used:
Assay in all cases: DTP human tumour cell line panel, 48 h
M14 melanoma = tested on: M14 melanoma
LOX IMVI melanoma = tested on: LOX IMVI melanoma
HCT-15 colon = tested on: HCT-15 colon
NCI-H522 lung = tested on: NCI-H522 lung
A549 NSCLC = tested on: A549 NSCLC
HS 578T breast = tested on: HS 578T breast
BT-549 breast = tested on: BT-549 breast
DU-145 prostate = tested on: DU-145 prostate
T-47D breast = tested on: T-47D breast
SW-620 colon = tested on: SW-620 colon

SMILES | GI50 (M14 melanoma) | TGI (M14 melanoma) | GI50 (LOX IMVI melanoma) | TGI (LOX IMVI melanoma) | GI50 (HCT-15 colon) | TGI (HCT-15 colon) | GI50 (NCI-H522 lung) | TGI (NCI-H522 lung) | GI50 (A549 NSCLC) | TGI (A549 NSCLC) | GI50 (HS 578T breast) | TGI (HS 578T breast) | GI50 (BT-549 breast) | TGI (BT-549 breast) | GI50 (DU-145 prostate) | TGI (DU-145 prostate) | TGI (T-47D breast) | TGI (SW-620 colon) | GI50 (SW-620 colon) | GI50 (T-47D breast)
O=C1/C(=C/c2ccc(C(F)(F)F)cc2)COc2ccc(O)c(O)c21 | 1.78 µM | 4.04 µM | 377 nM | 1.48 µM | 444 nM | 1.93 µM | 216 nM | 0.515 µM | 1.51 µM | 3.15 µM | 2200 nM | 6.02 µM | 1860 nM | 3.58 µM | 1600 nM | 3.19 µM |  |  |  | 
O=C1C=CC(=O)c2c1nc(CBr)[nH]c2=O |  | > 100 µM |  | > 100 µM |  | > 100 µM |  | > 100 µM |  | > 100 µM |  | > 100 µM |  |  |  | > 100 µM | > 100 µM |  |  | 
N#CC(/C(CCCC(=O)Nc1cccc([N+](=O)[O-])c1)=N\NC(=O)c1c(O)ccc2ccccc12)c1nc2ccccc2s1 (centres undefined) |  | > 100 µM |  |  |  |  |  | > 100 µM |  | > 100 µM |  |  |  |  |  |  |  | > 100 µM |  | 
COc1ccc(C(=O)C(C(=O)C(=O)NCCCNC(=O)C(=O)C(C(=O)c2ccc(OC)cc2)c2ccc(OC)cc2)c2ccc(OC)cc2)cc1 (centres undefined) |  | > 100 µM |  | > 100 µM |  | > 100 µM |  | > 100 µM |  | > 100 µM |  |  |  |  |  |  |  | > 100 µM |  | 
CN(C)c1ccc2[nH]c3c(C(N)=O)cc(=O)c(=O)c=3oc2c1 | 2.93 µM | > 100 µM | 334 nM | > 100 µM | 766 nM | > 100 µM | 687 nM | 8.24 µM | 3.19 µM | > 100 µM | 973 nM | 8.31 µM |  |  | 4600 nM | > 100 µM | > 100 µM | > 100 µM | 2020 nM | 1.81 µM
O=C(N/C(=C\c1ccc(/C=C(\NC(=O)c2ccccc2)c2nc3c(O)nc(S)nc3[nH]2)cc1)c1nc2c(O)nc(S)nc2[nH]1)c1ccccc1 |  | > 100 µM |  | > 100 µM |  | > 100 µM |  | 41.1 µM |  | > 100 µM |  |  |  |  |  |  |  | > 100 µM |  | 
COC1/C(=C\C(C)=O)c2ccccc2N1C(C)=O (centres undefined) |  | > 100 µM |  |  |  | > 100 µM |  |  |  | > 100 µM |  |  |  |  |  |  |  | > 100 µM |  | 
COc1ccc(/C=C/c2ccnc3ccccc23)cc1OC |  | 34.9 µM |  | 21.6 µM |  | 30.4 µM |  | 23.2 µM |  | 31.2 µM |  | 81.6 µM |  |  |  | 26.6 µM | 74.5 µM | 29.1 µM |  | 
CCN(CC)C(=S)SS(C)(=O)=O |  | 32.1 µM |  | 26.5 µM |  | 26.2 µM |  | 0.137 µM |  |  |  |  |  |  |  |  |  | 35.2 µM |  | 
O=C(CCc1ccccc1)CC1OC(=O)C(Cl)=C1Cl (centres undefined) |  | 31 µM |  | 40.2 µM |  | 30.3 µM |  | 28.5 µM |  | > 100 µM |  |  |  |  |  |  |  | 25.1 µM |  | 
N#Cc1ccc(C2SCc3nc4ccccc4n32)cc1 (centres undefined) |  | > 100 µM |  |  |  | > 100 µM |  | 75.8 µM |  | > 100 µM |  |  |  |  |  |  |  | > 100 µM |  | 
Cc1ccc(S(=O)(=O)C2CC2(Cl)Cl)cc1 (centres undefined) |  | 29.2 µM |  | 35.6 µM |  | 55.4 µM |  | 26.7 µM |  | > 100 µM |  |  |  |  |  |  |  | 44.1 µM |  | 
O=C(C(=CN1CCN(C(=O)c2ccco2)C1=S)C(=O)c1ccccc1)c1ccccc1 | 7 µM | 13.8 µM | 1220 nM | 4.1 µM | 2630 nM | 20.7 µM |  |  | 11.3 µM | 29.1 µM |  |  | 9960 nM | 26.4 µM | 12400 nM | > 50 µM | > 50 µM | 20.3 µM | 8730 nM | > 50 µM
O=C1C(Cl)=C(NCCCN(CCCNC2=C(Cl)C(=O)c3ccccc3C2=O)C2=C(Cl)C(=O)c3ccccc3C2=O)C(=O)c2ccccc21 |  |  |  |  | 1660 nM | 3.78 µM | 1970 nM | 4.98 µM | 3.43 µM | > 100 µM | 2880 nM | > 100 µM | 2500 nM | 13.5 µM | 1680 nM | 3.06 µM |  | 4.9 µM | 2210 nM | 
Cc1cc(N2CCOCC2)nc(NCc2cc(Nc3ccnc4cc(Cl)ccc34)ccc2F)n1 | 1.86 µM | 3.57 µM | 1750 nM | 3.27 µM | 1700 nM | 3.3 µM | 1950 nM | 3.85 µM | 1.87 µM | 3.6 µM |  |  | 1720 nM | 3.53 µM | 1600 nM | 3.08 µM | 3.41 µM | 3.28 µM | 1630 nM | 1.38 µM
Cc1[nH]c2cc([N+](=O)[O-])ccc2c1[N+](=O)[O-] |  | 44 µM |  | 76.2 µM |  |  |  | 38.4 µM |  | 69.6 µM |  |  |  |  |  |  |  | 97.9 µM |  | 
CC(=O)CC(=O)Nc1ccccc1C(F)(F)F |  | > 100 µM |  | > 100 µM |  | > 100 µM |  | > 100 µM |  | > 100 µM |  |  |  |  |  |  |  | > 100 µM |  | 

SMILES | GI50 (M14 melanoma) | TGI (M14 melanoma) | GI50 (LOX IMVI melanoma) | TGI (LOX IMVI melanoma) | GI50 (HCT-15 colon) | TGI (HCT-15 colon) | GI50 (NCI-H522 lung) | TGI (NCI-H522 lung) | GI50 (A549 NSCLC) | TGI (A549 NSCLC) | GI50 (HS 578T breast) | TGI (HS 578T breast) | GI50 (BT-549 breast) | TGI (BT-549 breast) | GI50 (DU-145 prostate) | TGI (DU-145 prostate) | TGI (T-47D breast) | TGI (SW-620 colon) | GI50 (SW-620 colon) | GI50 (T-47D breast)
Cc1c(-c2ccccn2)ccc2ccccc12 |  | > 100 µM |  | > 100 µM |  | > 100 µM |  |  |  | > 100 µM |  | > 100 µM |  |  |  | > 100 µM | > 100 µM | > 100 µM |  | 
CSc1nnc(C(C#N)C#N)nn1 |  | > 100 µM |  | > 100 µM |  | > 100 µM |  | > 100 µM |  | > 100 µM |  |  |  |  |  |  |  | > 100 µM |  | 
CCOC(=O)C1C(=O)CC(=O)C2CCCCC21 (centres undefined) |  | > 100 µM |  | > 100 µM |  | > 100 µM |  | > 100 µM |  | > 100 µM |  |  |  |  |  |  |  | > 100 µM |  | 
CC(=O)C1C(=O)C(=O)N(CCN2C(=O)C(=O)C(C(C)=O)C2=O)C1=O (centres undefined) |  | > 100 µM |  | > 100 µM |  | > 100 µM |  | > 100 µM |  |  |  |  |  |  |  |  |  | > 100 µM |  | 
CC(=O)[CH-]C(=O)c1ccccc1.CC(=O)[CH-]C(=O)c1ccccc1.CC(=O)[CH-]C(=O)c1ccccc1.[Ga+3] | 15.5 µM | 30.1 µM | 16300 nM | 31.7 µM | 18200 nM | > 100 µM | 12100 nM | 25 µM | 34.4 µM | > 100 µM |  |  |  |  |  |  |  | 55.8 µM | 23000 nM | 
N#CC1=C(N)OC2=C(CCOc3c2ccc2ccccc32)C1c1ccc(Br)cc1 (centres undefined) | 26.9 µM | > 100 µM |  |  | 31000 nM | > 100 µM | > 100000 nM | > 100 µM | 47.1 µM | > 100 µM |  |  | > 100000 nM | > 100 µM | > 100000 nM | > 100 µM | > 100 µM | > 100 µM | > 100000 nM | > 100 µM
CC1=C(C(=O)Nc2ccc(Cl)c(Cl)c2)C(c2cccc(Cl)c2)NC(=S)N1 (centres undefined) | 9.75 µM | 20.2 µM | 12800 nM | > 50 µM | 15100 nM | > 50 µM |  |  | 11.2 µM | 48.3 µM |  |  | 16400 nM | 38.6 µM | 14400 nM | 44 µM | > 50 µM | 36.1 µM | 15600 nM | 31.5 µM
COC(=O)[C@@]12C3=NO[C@]1(C(=O)OC)C(O[Si](C)(C)C(C)(C)C)[C@@H](OC(C)=O)[C@@H](OC(C)=O)[C@@H]2[C@@H](OCc1ccccc1)CC3 (some centres undefined) |  | > 100 µM |  | > 100 µM |  | > 100 µM |  | > 100 µM |  | > 100 µM |  |  |  |  |  |  |  | > 100 µM |  | 
CN(C)N=Nc1ccc(S(N)(=O)=O)cc1 |  | > 100 µM |  | > 100 µM |  | > 100 µM |  | > 100 µM |  | > 100 µM |  |  |  |  |  |  |  | > 100 µM |  | 
O=C(CI)Nc1ccc(Br)cc1 | 1.92 µM | 3.85 µM | 326 nM | 1.46 µM | 2090 nM | 5.13 µM | 1530 nM | 3.47 µM | 5.89 µM | 29.3 µM | 5050 nM | > 100 µM | 1640 nM | 3.14 µM | 1770 nM | 3.18 µM |  |  |  | 
COc1cc(O)c(C(=O)/C=C/c2ccc(OC)c(OCc3ccccc3)c2)c(OC)c1 |  | > 100 µM |  | > 100 µM |  | > 100 µM |  | > 100 µM |  | > 100 µM |  |  |  |  |  |  |  | > 100 µM |  | 
Clc1ccc(-c2nc(NCc3ccco3)c3ccccc3n2)c(Cl)c1 | 17.4 µM | 36.1 µM | 8980 nM | 26.8 µM | 13100 nM | 42.7 µM | 33700 nM | > 100 µM | 20.1 µM | 49.1 µM | 14200 nM | 46.4 µM |  |  | 8380 nM | 29.6 µM | > 100 µM |  |  | 45.6 µM
CCCCCCCCN=C(NCCCCCCCC)SCc1cccc2ccccc12 | 1.44 µM | 2.86 µM | 1590 nM | 3.08 µM | 1190 nM | 3.09 µM | 1380 nM | 2.87 µM | 1.67 µM | 3.13 µM | 1610 nM | 3.81 µM |  |  | 1800 nM | 3.29 µM | 3.01 µM | 3.36 µM | 1650 nM | 1.55 µM
NC(=O)c1ncn(C2OC(CO)C(O)C2O)c1O (centres undefined) |  | > 100 µM |  | > 100 µM |  | > 100 µM |  |  |  | > 100 µM |  |  |  |  |  |  |  | > 100 µM |  | 
CC1=C2C=CC(=O)C[C@@]2(C)CCC1 |  | > 100 µM |  | > 100 µM |  | > 100 µM |  | > 100 µM |  | > 100 µM |  |  |  |  |  |  |  | > 100 µM |  | 
CCN(CC)c1ccc(C2N3CCCCC3[C@@H]3c4[nH]c5ccccc5c4CCN23)cc1 (some centres undefined) |  | 64.8 µM |  |  |  | > 100 µM |  |  |  | > 100 µM |  |  |  |  |  |  |  | > 100 µM |  | 
